Values of other authors in patent US20060159689A1, “Combinations of tumor-associated antigens in diagnostics for various types of cancers” (priority 2004, published 2006).

Tested on: VEGF-A
Conditions: colorectal, lung, breast, ovarian carcinoma and other cancers

VEGF-A, sequence (P15692 207-311 limits assumed): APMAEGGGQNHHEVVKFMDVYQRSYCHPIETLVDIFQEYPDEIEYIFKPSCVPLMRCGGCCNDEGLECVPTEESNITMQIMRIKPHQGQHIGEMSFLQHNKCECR

Substance: bevacizumab
- effect on tumor progression and metastatic disease: control of tumor progression and metastatic disease
